# Article PMC3553236 (Biochemical pharmacology, 2012)
# Like-named read-outs stand apart in the source and are kept apart here.
# Experiments:
# in vitro [1] = details: human, MRP1-HEK293 cells (ABCC1-transfected HEK293)
# pcDNA-HEK293 cells = test: Cytotoxicity / MDR reversal assay, pcDNA-HEK293; format: cell-based; details: Homo sapiens
# [2] = test system: MRP1-HEK293 (ABCC1) cells; details: for R.R of etoposide in the presence of the treatment: MRP1-HEK293 / pcDNA-HEK293
# [3] = Cytotoxicity / MDR reversal assay, MDR19-HEK293; format: cell-based, human; details: human, MDR19-HEK293 cells (ABCB1-transfected HEK293)
# [4] = test system: MDR19-HEK293 (ABCB1) cells; test: Cytotoxicity / MDR reversal assay, MDR19-HEK293; format: cell-based, human; details: for R.R of doxorubicin in the presence of the treatment: MDR19-HEK293 / pcDNA-HEK293
# in vitro [5] = format: cell-based, human; details: human, R482-HEK293 cells (ABCG2-transfected HEK293)
# [6] = test system: R482-HEK293 (ABCG2) cells; test: in vitro; format: cell-based, human; details: for R.R (relative resistance): IC50 R482-HEK293 / IC50 pcDNA-HEK293, drug alone
# A375-G2 cells = test: cells; format: cell-based, human; details: for IC50: Homo sapiens, A-375
# [7] = test system: BRAF(V600E) mutant A375 melanoma cells; test: cells; format: cell-based, human
# [8] = test system: drug sensitive parental cells; test: Fluorescent probe accumulation in drug sensitive parental cells; format: cell-based, human; details: up to 50 µM
# ABCB1 [9] = target: T1, ABCB1 (Homo sapiens, UniProt P08183); test: Vi-sensitive ATPase activity of ABCB1; format: biochemical
# ABCB1 [10] = target: T1, ABCB1; test: cell-based
# KB-3-1 cells = test: Cytotoxicity assay; format: cell-based; details: Homo sapiens
# ABCB1 [11] = details: KBV-1; 0.3 µM-10 µM, 72 h
# S1-M1-80 cells = test: cells; details: Homo sapiens
# ABCG2 (R482T) = ABCG2 (R482T) (Homo sapiens, UniProt Q9UNQ0, R482T); test: ABCG2-mediated mitoxantrone efflux, flow cytometry, MCF7-AdVp3000
# ABCG2 (wild type R482) = ABCG2 (wild type R482) (Homo sapiens, UniProt Q9UNQ0); test: ABCG2-mediated mitoxantrone efflux, flow cytometry, MCF7-FLV1000
# MCF7 cells = test: Cytotoxicity assay; format: cell-based; details: Homo sapiens
# KBV-1 cells = test: cells; details: Homo sapiens, KB-V1
# ABCG2 [12] = target: T2, ABCG2 (Homo sapiens, UniProt Q9UNQ0); test: biochemical
# T2 sequence (Q9UNQ0 1-655): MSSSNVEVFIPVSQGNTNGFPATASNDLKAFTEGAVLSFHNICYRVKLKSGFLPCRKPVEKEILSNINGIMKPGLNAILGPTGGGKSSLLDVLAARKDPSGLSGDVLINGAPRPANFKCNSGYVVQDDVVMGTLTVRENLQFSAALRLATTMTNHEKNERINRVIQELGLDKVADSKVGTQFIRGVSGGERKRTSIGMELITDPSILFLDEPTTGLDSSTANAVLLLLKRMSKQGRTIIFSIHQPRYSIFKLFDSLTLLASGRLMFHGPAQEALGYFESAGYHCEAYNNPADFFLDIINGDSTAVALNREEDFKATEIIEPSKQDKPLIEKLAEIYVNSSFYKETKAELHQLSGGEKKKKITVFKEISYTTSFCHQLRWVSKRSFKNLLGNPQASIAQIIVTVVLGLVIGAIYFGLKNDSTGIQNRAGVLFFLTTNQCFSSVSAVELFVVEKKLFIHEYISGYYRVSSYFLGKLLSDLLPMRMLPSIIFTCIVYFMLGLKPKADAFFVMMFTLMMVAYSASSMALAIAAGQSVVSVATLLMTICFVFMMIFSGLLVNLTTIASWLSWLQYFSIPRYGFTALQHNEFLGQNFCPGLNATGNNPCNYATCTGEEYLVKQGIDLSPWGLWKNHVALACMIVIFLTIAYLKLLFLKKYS
# ABCG2 [13] = target: T2, ABCG2; test: Vi-sensitive ATPase activity of ABCG2; format: biochemical
# ABCG2 (R482G) = ABCG2 (R482G) (Homo sapiens, UniProt Q9UNQ0, R482G); test: ABCG2-mediated mitoxantrone efflux, flow cytometry, S1-M1-80
# ABCB1 [14] = target: T1, ABCB1; test: [125I]IAAP photoaffinity labeling of ABCB1
# BRAF kinase = BRAF kinase activity in A375 and A375-G2 cells; format: cell-based, human; details: 0.2 – 5.0 µM, 4 h
# CORL-23/P cells = test: Cytotoxicity assay; format: cell-based; details: Homo sapiens, COR-L23
# ABCG2 [15] = details: 2 µM; ABCG2-overexpressing HEK293, MCF7-FLV1000, MCF7-AdVp3000 and S1-M1-80
# MCF7-FLV1000 cells = test: cells; details: Homo sapiens, MCF-7 FLV1000
# ABCG2 [16] = details: MCF7-FLV1000; 0.3 µM-10 µM, 72 h
# MCF7-AdVp3000 cells = test: cells; details: Homo sapiens
# ABCG2 [17] = target: T2, ABCG2
# Colo-205 cells = test: Cytotoxicity assay; format: cell-based; details: Homo sapiens
# S1 cells = test: Cytotoxicity assay; format: cell-based; details: Homo sapiens
# CORL-23/R cells = test: cells; details: Homo sapiens, COR-L23/R
# ABCC1 = format: cell-based, human; details: CORL-23/R; 0.3 µM-10 µM, 72 h
# ABCB1 [18] = target: T1, ABCB1; test: ABCB1-mediated calcein-AM efflux, flow cytometry; details: 2 µM, MDR19-HEK293 and KBV-1
# [19] = doxorubicin + treatment at 1 µM
# T1 sequence (P08183 whole entry): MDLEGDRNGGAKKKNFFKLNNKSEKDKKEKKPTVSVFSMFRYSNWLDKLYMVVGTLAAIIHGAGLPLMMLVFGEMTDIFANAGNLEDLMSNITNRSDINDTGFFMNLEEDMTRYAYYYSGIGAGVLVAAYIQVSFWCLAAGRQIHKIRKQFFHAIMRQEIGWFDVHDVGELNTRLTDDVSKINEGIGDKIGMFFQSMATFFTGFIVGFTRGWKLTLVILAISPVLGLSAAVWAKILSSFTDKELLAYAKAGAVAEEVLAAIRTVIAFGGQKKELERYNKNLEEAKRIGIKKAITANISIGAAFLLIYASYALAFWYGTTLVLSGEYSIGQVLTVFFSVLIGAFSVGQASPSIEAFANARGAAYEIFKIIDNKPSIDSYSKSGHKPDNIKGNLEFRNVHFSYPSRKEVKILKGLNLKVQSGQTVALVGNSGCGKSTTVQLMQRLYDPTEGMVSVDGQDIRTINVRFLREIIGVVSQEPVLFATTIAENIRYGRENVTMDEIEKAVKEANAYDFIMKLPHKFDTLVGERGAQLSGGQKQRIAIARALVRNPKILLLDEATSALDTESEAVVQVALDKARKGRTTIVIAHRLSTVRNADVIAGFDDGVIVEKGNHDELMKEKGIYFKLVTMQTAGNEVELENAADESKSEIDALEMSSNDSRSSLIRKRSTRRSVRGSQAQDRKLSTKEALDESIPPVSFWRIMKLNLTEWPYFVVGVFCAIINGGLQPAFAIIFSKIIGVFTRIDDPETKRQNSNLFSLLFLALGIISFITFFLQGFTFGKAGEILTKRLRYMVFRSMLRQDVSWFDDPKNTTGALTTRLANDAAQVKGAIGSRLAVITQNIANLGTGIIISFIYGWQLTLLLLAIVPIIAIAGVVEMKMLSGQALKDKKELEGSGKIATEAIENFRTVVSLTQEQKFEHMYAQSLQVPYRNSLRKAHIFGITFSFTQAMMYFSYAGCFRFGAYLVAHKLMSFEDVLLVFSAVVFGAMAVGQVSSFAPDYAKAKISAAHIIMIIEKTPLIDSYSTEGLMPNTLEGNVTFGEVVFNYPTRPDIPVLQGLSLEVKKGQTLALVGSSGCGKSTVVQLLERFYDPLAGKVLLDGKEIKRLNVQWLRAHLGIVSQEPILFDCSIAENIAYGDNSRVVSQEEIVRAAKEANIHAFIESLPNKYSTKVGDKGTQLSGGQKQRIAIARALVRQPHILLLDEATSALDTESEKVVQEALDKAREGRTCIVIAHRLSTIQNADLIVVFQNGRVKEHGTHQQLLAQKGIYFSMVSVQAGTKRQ
# Chain of ABCG2 (R482G) (Q9UNQ0 whole entry R482G): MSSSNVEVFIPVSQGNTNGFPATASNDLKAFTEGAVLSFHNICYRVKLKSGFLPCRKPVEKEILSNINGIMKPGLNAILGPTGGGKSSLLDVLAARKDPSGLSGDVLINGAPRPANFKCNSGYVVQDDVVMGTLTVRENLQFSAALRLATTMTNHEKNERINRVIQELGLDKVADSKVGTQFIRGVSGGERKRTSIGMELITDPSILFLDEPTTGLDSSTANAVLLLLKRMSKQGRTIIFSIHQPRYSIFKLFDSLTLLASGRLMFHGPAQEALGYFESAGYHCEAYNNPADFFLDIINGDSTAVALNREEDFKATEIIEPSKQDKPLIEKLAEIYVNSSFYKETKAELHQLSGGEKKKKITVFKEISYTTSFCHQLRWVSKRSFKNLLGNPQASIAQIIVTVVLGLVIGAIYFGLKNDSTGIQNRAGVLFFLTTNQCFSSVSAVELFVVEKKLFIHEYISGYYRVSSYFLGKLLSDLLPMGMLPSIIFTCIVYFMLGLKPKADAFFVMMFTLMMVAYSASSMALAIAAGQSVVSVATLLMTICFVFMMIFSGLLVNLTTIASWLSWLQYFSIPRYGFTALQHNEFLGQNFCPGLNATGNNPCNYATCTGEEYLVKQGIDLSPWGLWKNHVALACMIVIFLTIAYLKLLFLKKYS
# Chain of ABCG2 (R482T) (Q9UNQ0 whole entry R482T): as the sequence (Q9UNQ0 whole entry R482G) above, with G482T counted along it
smiles,measurement,setting,value
COc1cc([C@@H]2c3cc4c(cc3[C@@H](O[C@@H]3O[C@@H]5CO[C@@H](C)O[C@H]5[C@H](O)[C@H]3O)[C@H]3COC(=O)[C@H]23)OCO4)cc(OC)c1O [Etoposide],IC50,in vitro [1],34900 ± 4030 nM
same,IC50,pcDNA-HEK293 cells,217 ± 72 nM
same,R.R (relative resistance),"[2]; IC50 MRP1-HEK293 / IC50 pcDNA-HEK293, drug alone",161
COc1cccc2c1C(=O)c1c(O)c3c(c(O)c1C2=O)C[C@@](O)(C(=O)CO)C[C@@H]3O[C@H]1C[C@H](N)[C@H](O)[C@H](C)O1 [Doxorubicin],IC50,[3],594 ± 78 nM
same,R.R (relative resistance),"[4]; IC50 MDR19-HEK293 / IC50 pcDNA-HEK293, drug alone",32
same,IC50,pcDNA-HEK293 cells,18.5 ± 8.31 nM
CC[C@@]1(O)C(=O)OCc2c1cc1n(c2=O)Cc2cc3c(CN(C)C)c(O)ccc3nc2-1 [Topotecan],IC50,in vitro [5],510 ± 94.5 nM
same,R.R (relative resistance),[6],28
same,IC50,pcDNA-HEK293 cells,18.3 ± 4.48 nM
O=C1c2c(O)ccc(O)c2C(=O)c2c(NCCNCCO)ccc(NCCNCCO)c21 [Mitoxantrone],"fold more resistant, A375-G2 than parental A375 cells",A375-G2 cells,over 6 fold
same,IC50,A375-G2 cells,15 ± 3.48 nM
same,R.R (relative resistance),"A375-G2 cells; IC50 A375-G2 / IC50 A375, drug alone",6
same,IC50,"[7]; Homo sapiens, A-375, A375, drug alone",2.35 ± 0.64 nM
same,IC50,in vitro [5],178 ± 19 nM
same,R.R (relative resistance),[6],34
same,IC50,pcDNA-HEK293 cells,5.3 ± 1.24 nM
CCCS(=O)(=O)Nc1ccc(F)c(C(=O)c2c[nH]c3ncc(-c4ccc(Cl)cc4)cc23)c1F [Vemurafenib],effect on accumulation of fluorescent probes in drug sensitive parental cells,[8],no effect
same,inhibition of ATPase activity,ABCB1 [9]; higher concentrations,~ 50%
same,stimulation of ATPase activity above basal level,ABCB1 [9]; lower concentrations,~ 40%
same,IC50,ABCB1 [10],> 50000 nM
same,IC50,KB-3-1 cells,14800 ± 4190 nM
same,IC50,in vitro [1],21800 ± 2560 nM
same,effect on ABCB1 protein expression level,ABCB1 [11],no significant effect
same,IC50,S1-M1-80 cells,14700 ± 3020 nM
same,IC50,ABCG2 (R482T),4910 nM
same,IC50,ABCG2 (wild type R482),1240 nM
same,IC50,MCF7 cells,53600 ± 9420 nM
same,R.R of mitoxantrone in the presence of the treatment,"A375-G2 cells; A375-G2 / A375, mitoxantrone + treatment at 0.02 µM",2
same,IC50,A375-G2 cells,215 ± 32.8 nM
same,IC50,KBV-1 cells,16900 ± 4970 nM
same,IC50,ABCG2 [12],570 nM
same,inhibition of ATPase activity,ABCG2 [13]; higher concentrations,~ 90%
same,stimulation of ATPase activity above basal level,ABCG2 [13]; lower concentrations,~ 95%
same,IC50,ABCG2 (R482G),2600 nM
same,IC50,ABCB1 [14],4510 nM
same,"inhibitory effect on p-MEK1/2, A375 versus A375-G2",BRAF kinase,comparable
same,levels of total MEK1/2 and ERK1/2,BRAF kinase; A375 and A375-G2,remained unchanged
same,levels of p-MEK1/2 and p-ERK1/2,"BRAF kinase; A375 and A375-G2, concentration-dependent",reduced
same,IC50,CORL-23/P cells,8520 ± 1390 nM
same,R.R of doxorubicin in the presence of the treatment,[4]; [19],23
same,R.R of doxorubicin in the presence of the treatment,[4]; doxorubicin + treatment at 2 µM,23
same,R.R of doxorubicin in the presence of the treatment,[4]; doxorubicin + treatment at 5 µM,22
same,ABCG2-mediated efflux of PhA,ABCG2 [15],inhibited significantly
same,IC50,MCF7-FLV1000 cells,58700 ± 15800 nM
same,re-sensitization of R482-HEK293 cells to mitoxantrone,[6],~ 6 fold
same,re-sensitization of R482-HEK293 cells to topotecan,[6],~ 9 fold
same,effect on ABCG2 protein expression level,ABCG2 [16],no significant effect
same,IC50,MCF7-AdVp3000 cells,70000 ± 27400 nM
same,ABCG2-mediated efflux of pheophorbide A,ABCG2 [17],inhibited completely
same,IC50,Colo-205 cells,118 ± 11 nM
same,IC50,S1 cells,13600 ± 3840 nM
same,IC50,CORL-23/R cells,8540 ± 2250 nM
same,effect on ABCC1 protein expression level,ABCC1,no significant effect
same,IC50,pcDNA-HEK293 cells,28100 ± 6930 nM
same,effect on drug efflux mediated by ABCB1,ABCB1 [18],no significant effect
same,R.R of etoposide in the presence of the treatment,[2]; etoposide + treatment at 1 µM,159
same,R.R of etoposide in the presence of the treatment,[2]; etoposide + treatment at 2 µM,165
same,R.R of etoposide in the presence of the treatment,[2]; etoposide + treatment at 5 µM,116
"COc1ccc2c3c([nH]c2c1)[C@H](C=C(C)C)N1C(=O)[C@@H]2CCCN2C(=O)[C@@H]1C3 [FTC, Fumitremorgin C]",R.R of mitoxantrone in the presence of the treatment,"A375-G2 cells; A375-G2 / A375, mitoxantrone + treatment at 3 µM",2
same,R.R of vemurafenib in the presence of the treatment,"A375-G2 cells; A375-G2 / A375, vemurafenib + treatment at 3 µM",1
same,reversal of ABCG2-mediated resistance to vemurafenib,"A375-G2 cells; A375-G2, FTC 3 µM (Table 2)",reversed completely
same,R.R of mitoxantrone in the presence of the treatment,"[6]; R482-HEK293 / pcDNA-HEK293, mitoxantrone + treatment at 3 µM",5
same,R.R of topotecan in the presence of the treatment,"[6]; R482-HEK293 / pcDNA-HEK293, topotecan + treatment at 3 µM",3
same,ABCG2-mediated efflux of pheophorbide A,"ABCG2 [17]; A375-G2, 5 µM",inhibited completely
COc1cc2c(cc1OC)CN(CCc1ccc(NC(=O)c3cc(OC)c(OC)cc3NC(=O)c3cnc4ccccc4c3)cc1)CC2 [Tariquidar],R.R of doxorubicin in the presence of the treatment,[4]; [19],3
